Patent US20090031455A1 (priority 2004, published 2009)

Tests used:
recombinant FaPINH = assay: recombinant enzyme activity assay with yeast microsomes, GC-MS; settings: for hydroxylation of alternative substrates by PINH: position analogous to α-pinene C10 (C7), FIGS. 3-4
Description: Microsome preparations were evaluated by CO-difference spectrum and were assayed for (−)-α-pinene hydroxylation. The reaction mixture for the recombinant enzyme activity assay, in a final volume of 1 ml, contained 50 mM Tris-HCl pH 7.4, 1 mM EDTA, 0.1 mM DTT, 0.8 units glucose-6-phosphate dehydrogenase, 2 mM glucose 6-phosphate, 5 μM FAD, 5 μM FMN, 1 mM NADPH, and 200 μL of microsomal preparation. 200 nmol (−)-α-pinene (in less than 10 μl, which has no detectable influence on the reaction) were added to the mixture to start the reaction, which was allowed to proceed for 2 hours at 30° C. with gentle shaking. Microsomes isolated from cells harboring the empty vector were employed as controls. The reaction was stopped by chilling the mixture on ice and extracting twice with 1.0-mL portions of pentane:diethyl ether (4:1). The combined extract was passed through a short column of silica gel and anhydrous MgSO4, after which the column was washed with 1.5 mL diethyl ether to remove residual compounds. After concentration under N2, the samples were analyzed by GC-MS. Samples (2 μL) were analyzed by an automated injector on a Hewlett-Packard 5890 series II gas chromatograph equipped with a 30 m×0.25 mm inner diameter fused silica column coated with a 0.25 μm film of HP 5MS (Hewlett-Packard), and a Hewlett-Packard 5972A Mass Selective Detector. GC oven temperature was programmed at an initial temperature of 45° C. for 1 min, with a ramp of 10° C. min-1 to 280° C., and a final time of 10 min. Full spectra were recorded for major reaction products, which were identified by comparing retention times with authentic standards and by comparing spectra with those of the NSB75K library, using the G1033A NIST probability based matching algorithm.

plant pathogens = type: cell-based; settings: for antimicrobial effect compared with geraniol: data not shown; for antimicrobial effect compared with perilla alcohol: FIGS. 7-8
Phytophthora infestans [1] = type: cell-based; settings: P. infestans; for inhibition of spore germination: FIG. 7
Botrytis elliptica [2] = type: cell-based
Botrytis elliptica [3] = type: cell-based; remark: listed apart in the source
Phytophthora infestans [4] = type: cell-based; settings: P. infestans; for inhibition of mycelial growth: FIG. 8
Pythium aphanidermatum = type: cell-based
[5] = tested on: PINH expressed in Saccharomyces cerevisiae; assay: in vivo bioconversion assay with intact transgenic yeast cells expressing PINH; settings: 500 μM (−)-α-pinene, 2 h at 30° C.
Description: Transformants were selected on SGI medium, while expression was carried out in YPL medium (induction with 2% galactose) (Pompon et al., 1996). Intact cells were harvested and used for an in vivo assay, by incubation in 50 mM Tris-HCl buffer (pH 7.4) containing 0.1 mM DTT and 1 mM EDTA in the presence of 500 μM (−)-α-pinene. The reaction was allowed to proceed for 2 h at 30° C. with gentle shaking. Controls containing no substrate, and cells containing vector without insert, were also used for in vivo assays. The assays were extracted and analysed using GC-MS as described under Example 3.

## CC1=CC[C@H]2C[C@@H]1C2(C)C [(−)-α-pinene]
Recombinant FaPINH; (−)- versus (+)-α-pinene
  substrate preference between enantiomers: preferred to (+)-α-pinene

## CC(C)=CCCC(C)=CC=O [citral]
Plant pathogens
  antimicrobial effect compared with geraniol: more effective than geraniol

## CC(C)=CCC/C(C)=C/C(=O)O [geranic acid]
Plant pathogens
  antimicrobial effect compared with geraniol: more effective than geraniol

## C=C(C)[C@H]1CC=C(C)CC1 [limonene]
Recombinant FaPINH
  hydroxylation of alternative substrates by PINH: efficiently hydroxylated

## CC1(C)C2CC=C(CO)C1C2 (stereo not shown) [myrtenol]
Phytophthora infestans [1]
  inhibition of spore germination: effective inhibitors
Botrytis elliptica [2]
  inhibition of spore germination: effective inhibitors
Botrytis elliptica [3]
  effectiveness against mycelial growth compared with linalool: slightly more effective than linalool
  inhibition of mycelial growth: effectively inhibited
Phytophthora infestans [4]
  effectiveness against mycelial growth compared with linalool: more effective than linalool
  inhibition of mycelial growth: effectively inhibited
Pythium aphanidermatum
  effectiveness against mycelial growth compared with linalool: less effective than linalool
  inhibition of mycelial growth: effectively inhibited

## Cc1ccc(C(C)C)cc1 [p-cymene]
Recombinant FaPINH
  hydroxylation of alternative substrates by PINH: hydroxylated at C7

## C=C(C)[C@@H]1CC=C(CO)CC1 [perilla alcohol]
Phytophthora infestans [1]
  inhibition of spore germination: effective inhibitors
Botrytis elliptica [2]
  effectiveness against spore germination relative to linalool and myrtenol: about 2 fold
  inhibition of spore germination: effective inhibitors
Botrytis elliptica [3]
  effectiveness against mycelial growth compared with linalool: slightly more effective than linalool
  inhibition of mycelial growth: effectively inhibited
Phytophthora infestans [4]
  effectiveness against mycelial growth compared with linalool: more effective than linalool
  inhibition of mycelial growth: effectively inhibited
Pythium aphanidermatum
  effectiveness against mycelial growth compared with linalool: more effective
  inhibition of mycelial growth: effectively inhibited

## C=C(C)C1CC=C(C=O)CC1 (stereo not shown) [perilla aldehyde]
Phytophthora infestans [1]
  inhibition of spore germination: effective inhibitors
Phytophthora infestans [1]; FIG. 7A, more effective than linalool
  effectiveness against spore germination relative to linalool: about 10 fold
Botrytis elliptica [2]
  effect on spore germination at the concentration tested: completely blocks germination
  inhibition of spore germination: effective inhibitors
Botrytis elliptica [3]
  effectiveness against mycelial growth compared with linalool: slightly more effective than linalool
  inhibition of mycelial growth: effectively inhibited
Phytophthora infestans [4]
  effectiveness against mycelial growth compared with linalool: more effective than linalool
  inhibition of mycelial growth: effectively inhibited
Phytophthora infestans [4]; more effective than linalool
  effectiveness against mycelial growth relative to linalool: 4-5 fold
Pythium aphanidermatum
  effectiveness against mycelial growth compared with linalool: more effective
  inhibition of mycelial growth: effectively inhibited
Plant pathogens
  antimicrobial effect compared with perilla alcohol: more effective than perilla alcohol

## C=C(C)[C@@H]1CC=C(C(=O)O)CC1 [perillic acid]
Plant pathogens
  antimicrobial effect compared with perilla alcohol: more effective than perilla alcohol

## CC1=CC[C@H](C(C)C)C=C1 [α-phellandrene]
Recombinant FaPINH
  hydroxylation of alternative substrates by PINH: hydroxylated at the same position

## CC1=CCC2CC1C2(C)C (stereo not drawn) [α-pinene]
Recombinant FaPINH; microsomes from FaPINH expressing yeast, 2 hours at 30° C.
  substrate hydroxylated at C-10 to form myrtenol: over 50%
[5]
  conversion into myrtenol by intact yeast cells: efficiently converted

## CC1=CC=C(C(C)C)CC1 [α-terpinene]
Recombinant FaPINH
  hydroxylation of alternative substrates by PINH: hydroxylated at the same position

## CC1=CCC(=C(C)C)CC1 [α-terpinolene]
Recombinant FaPINH
  hydroxylation of alternative substrates by PINH: hydroxylated at the same position
